Data taken from paper PMC8041284, “Tunable Methacrylamides for Covalent Ligand Directed Release Chemistry” (Journal of the American Chemical Society, 2021).
Where two headings read alike, the source gives them in different places. *1 amine or outer side, *2 acyl side, *3 side chain or, on linkers, in order; H or OH if unused. Where a SMILES comes first, the peptide text is derived from it. Bridges are numbered along the chain shown (N, C = ends). [ ]: non-standard residue; d: D form. The star is where a group is joined. hTyr(3S-OH,4S-OH,3'-OSO3H) = N[C@H](C(=O)O)[C@H](O)[C@@H](O)c1ccc(O)c(OS(=O)(=O)O)c1; Orn(4R-OH,5R-OH) = O=C([C@H](C[C@@H](O)[C@@H](O)N[*:3])N[*:1])[*:2]; Pro(3S-OH,4S-Me) = C[C@H]1CN[C@H](C(=O)O)[C@H]1O; X1 = CCCCCOc1ccc(-c2cc(-c3ccc(C(=O)*)cc3)no2)cc1; Gln(3R-OH) = NC(=O)C[C@@H](O)[C@H](N)C(=O)O; Hyp = O=C(O)[C@@H]1C[C@@H](O)CN1

Biological target: BTK (Homo sapiens, UniProt Q06187)
Assay: biochemical
[1] = read-out: BTK inhibition (%), 0.75 uM BTK, […] probe 3l, 15 min preincubation

BTK, sequence (Q06187 402-655 limits assumed): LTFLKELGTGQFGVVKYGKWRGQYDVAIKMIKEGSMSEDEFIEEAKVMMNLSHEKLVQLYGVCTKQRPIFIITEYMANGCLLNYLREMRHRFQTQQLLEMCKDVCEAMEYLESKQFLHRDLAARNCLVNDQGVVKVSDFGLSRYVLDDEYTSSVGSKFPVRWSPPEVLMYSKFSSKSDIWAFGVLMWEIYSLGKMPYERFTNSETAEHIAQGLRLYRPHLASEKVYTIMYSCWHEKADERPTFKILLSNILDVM

Structure (SMILES) | inhibition at 10 µM [1] | inhibition at 10 µM (read-out: BTK inhibition (%))
C[C@H](Cn1cnc2c(N)ncnc21)OCP(=O)(O)O [PCM-0090661] | -11.7% | –
CC(=O)Nc1ccc(OC(=O)c2ccccc2OC(C)=O)cc1 [PCM-0216013] | 2.1% | –
COc1cc(C(=O)NS(=O)(=O)c2ccccc2C)ccc1Cc1cn(C)c2ccc(NC(=O)OC3CCCC3)cc12 [PCM-0086066] | 47.6% | –
NC(=O)c1cnccn1 [PCM-0065550] | 5.4% | –
NCCCC(O)(P(=O)(O)O)P(=O)(O)O [PCM-0215186] | 0.9% | –
C=C[C@H]1CN2CC[C@H]1C[C@H]2[C@H](O)c1ccnc2ccccc12 [PCM-0094829] | -10.9% | –
COc1ccc(-c2oc3c(CC=C(C)C)c(O)cc(O)c3c(=O)c2O[C@@H]2O[C@@H](C)[C@H](O)[C@@H](O)[C@H]2O)cc1 [PCM-0214963] | 6.2% | –
Cc1c[nH]c(=O)[nH]c1=O [PCM-0216631] | 14.7% | –
N#Cc1ccc(Oc2ccc3c(c2)COB3O)cc1 [PCM-0215118] | 8.5% | –
O=C1[C@H]2CCCC[C@H]2C(=O)N1CCCCN1CCN(c2nsc3ccccc23)CC1 [PCM-0216064] | -9.3% | –
CC(C)C(=O)Oc1ccc(CO)cc1[C@H](CCN(C(C)C)C(C)C)c1ccccc1 [PCM-0095281] | -0.8% | –
O=C(Nc1cccc(Cl)c1)c1ccccn1 [PCM-0095506] | 5.4% | –
CC(C)NC[C@@H](C(=O)N1CCN(c2ncnc3c2[C@H](C)C[C@H]3O)CC1)c1ccc(Cl)cc1 [PCM-0095420] | -4.1% | –
C[C@H](O)[C@H](O)c1cnc2nc(N)[nH]c(=O)c2n1 [PCM-0216576] | 6.8% | –
O=C(Nc1ccc(-c2ccnc(Nc3ccc(N4CCOCC4)cc3)n2)cc1)[C@@H]1CCCN1 [PCM-0215262] | 4.8% | –
O=Cc1ccccc1O[C@@H]1O[C@H](CO)[C@@H](O)[C@H](O)[C@H]1O [PCM-0215148] | -15.6% | –
CC(=O)O[C@H](CC=C(C)C)C1=CC(=O)c2c(O)ccc(O)c2C1=O [PCM-0216503] | 35.7% | –
O=C(Cn1nnc(-c2ccncc2)c1-c1ccccc1)Nc1ccc(-c2ccccc2)cn1 [PCM-0216012] | 39.4% | –
Nc1nccc(Oc2ccc(NC(=O)c3c[nH]cc(-c4ccc(F)cc4)c3=O)cc2F)c1Cl [PCM-0095240] | 68.3% | –
CCCCCC1=C(C)CCC1=O [PCM-0216102] | -16.2% | –
CC(C)Cc1ccc([C@@H](C)C(=O)NS(C)(=O)=O)cc1 [PCM-0215882] | -24.8% | –
C[C@]12CC[C@@H]3c4ccc(OC(=O)c5ccccc5)cc4CC[C@H]3[C@@H]1CC[C@@H]2O [PCM-0095636] | -7.8% | –
O=C(O)CC1CC(c2ccccc2)=NO1 (stereo not drawn) [PCM-0215292] | -2.1% | –
COc1cc2ncnc(Nc3cccc(Cl)c3F)c2cc1OC(=O)N1CCN(C)C[C@H]1C [PCM-0215575] | -19.3% | –
NS(=O)(=O)c1ccc(NC(=S)N2CCN(C/C=C/c3ccccc3)CC2)cc1 [PCM-0215808] | 2.3% | –

Structure (SMILES) | inhibition at 10 µM [1] | inhibition at 10 µM (read-out: BTK inhibition (%))
CN(C)CCOc1ccc(/C(=C(/CCCl)c2ccccc2)c2ccccc2)cc1 [PCM-0086582] | 4.1% | –
N#CC[C@H](C1CCCC1)n1cc(-c2ncnc3[nH]ccc23)cn1 [PCM-0095031] | 28.3% | –
CN1CCN(Cc2ccc(NC(=O)Nc3ccc(Oc4cc(NC(=O)C5CC5)ncn4)cc3)cc2C(F)(F)F)CC1 [PCM-0215388] | 79.5% | –
Cc1nc2ccc(-n3ncc(C(=O)c4cc5ccccc5[nH]4)c3N)cc2[nH]1 [PCM-0215439] | 44.8% | –
Cc1c(Cn2c(C)nc3c(C(=O)O)cc(N4CCOCC4)cc32)cccc1C(F)(F)F [PCM-0095596] | -22.1% | –
CC(C)n1c(/C=C/[C@H](O)C[C@H](O)CC(=O)O)c(-c2ccc(F)cc2)c2ccccc21 [PCM-0090402] | 15.9% | –
N#Cc1ccc(-c2csc(NN=C3CCCC3)n2)cc1 [PCM-0215381] | 43.2% | –
COc1cnc(NS(=O)(=O)c2ccc(N)cc2)nc1 [PCM-0086492] | 5.4% | –
Nc1nc(CC(=O)Nc2ccc(CCNC[C@H](O)c3ccccc3)cc2)cs1 [PCM-0095557] | 3.9% | –
Cc1ncc([N+](=O)[O-])n1CCO [PCM-0085759] | -5.4% | –
COc1ccc(-c2cc(=O)c3c(O)cc(O)cc3o2)cc1O [PCM-0094859] | 57.6% | –
Cc1cc(-n2c(=O)[nH]c(=O)n(C)c2=O)ccc1Oc1ccc(SC(F)(F)F)cc1 [PCM-0086289] | -0.8% | –
O=C(NC1CCOCC1)c1ccc(-c2cc(-c3cn[nH]c3-c3ccccn3)ccn2)cc1 [PCM-0095490] | 1.6% | –
COC(=O)CCSCc1ccc(-c2onc(C)c2NC(=O)OC(C)c2ccccc2Cl)cc1 (stereo not drawn) [PCM-0095376] | 20.2% | –
COc1cc(C[C@H](C)[C@H](C)Cc2ccc3c(c2)OCO3)ccc1O [PCM-0216424] | 68.7% | –
CCOc1cc2ncc(C#N)c(Nc3ccc(OCc4ccccn4)c(Cl)c3)c2cc1NC(=O)/C=C/CN(C)C [PCM-0095315] | 80% | –
CC1(C)CC[C@]2(C(=O)O)CC[C@]3(C)C(=CC[C@@H]4[C@@]5(C)CC[C@H](O)[C@@](C)(CO)[C@@H]5CC[C@]43C)[C@@H]2C1 [PCM-0215046] | 15.6% | –
O=C(O)CC[C@@H](O)C(=O)O [PCM-0215516] | -13.6% | –
CC[C@H]1OC(=O)[C@H](C)[C@@H](O[C@H]2C[C@@](C)(OC)[C@@H](O)[C@H](C)O2)[C@H](C)[C@@H](O[C@@H]2O[C@H](C)C[C@H](N(C)C)[C@H]2O)[C@](C)(O)C[C@@H](C)[C@@H]2N[C@@H](COCCOC)O[C@H]([C@H]2C)[C@]1(C)O [PCM-0214762] | -10.9% | –
Cc1cnc(Nc2ccc(F)cc2Cl)nc1-c1c[nH]c(C(=O)N[C@H](CO)c2cccc(Cl)c2)c1 [PCM-0213398] | 60% | –
CN(C)CCc1c[nH]c2ccc(C[C@H]3COC(=O)N3)cc12 [PCM-0090594] | 17.1% | –
CCCCCCCCCC=O [PCM-0216148] | -10% | –
C[C@H]1[C@H](C)CC[C@]2(C(=O)O)CC[C@]3(C)C(=CC[C@@H]4[C@@]5(C)CC[C@H](O)C(C)(C)[C@@H]5CC[C@]43C)[C@H]12 [PCM-0214657] | 10.9% | –
CCc1cc(Nc2nccc(-c3c(-c4ccc(OC)c(C(=O)Nc5c(F)cccc5F)c4)nc4ccccn34)n2)c(OC)cc1N1CCC(N2CCN(S(C)(=O)=O)CC2)CC1 [PCM-0095069] | 44.8% | –
CCOc1ccc(NC(C)=O)cc1 [PCM-0086095] | 5.5% | –

Structure (SMILES) | inhibition at 10 µM [1] | inhibition at 10 µM (read-out: BTK inhibition (%))
CN1CCCN(C(=O)c2cccc(-c3ccc(/C=C4/C(=O)Nc5ccc(Cl)cc54)o3)c2)CC1 [PCM-0215321] | 26.9% | –
O=c1cc(-c2ccc(O)c(O)c2O)oc2ccccc12 [PCM-0215990] | 34% | –
Nc1ccc(C(=O)Nc2cccc(-c3nc(N4CCOCC4)c4oc5ncccc5c4n3)c2)cn1 [PCM-0094950] | -4.8% | –
CCOC(=O)c1cccc(N)c1 [PCM-0214922] | -2.3% | –
CCCCCOc1ccc(-c2cc(-c3ccc(C(=O)N[C@H]4C[C@@H](O)[C@@H](O)NC(=O)[C@@H]5[C@@H](O)[C@@H](C)CN5C(=O)[C@H]([C@H](O)CC(N)=O)NC(=O)[C@H]([C@H](O)[C@@H](O)c5ccc(O)c(OS(=O)(=O)O)c5)NC(=O)[C@@H]5C[C@@H](O)CN5C(=O)[C@H]([C@@H](C)O)NC4=O)cc3)no2)cc1 [PCM-0215341] (X1-[Orn(4R-OH,5R-OH)]T[Hyp][hTyr(3S-OH,4S-OH,3'-OSO3H)][Gln(3R-OH)][Pro(3S-OH,4S-Me)]; lactam 1-C) | 3.4% | –
NC(=O)N1CCC(CC(=O)N2CCC([C@H]3c4ncc(Br)cc4CCc4cc(Cl)cc(Br)c43)CC2)CC1 [PCM-0095392] | 32.7% | –
COc1ccc(C(=O)O)c(O)c1 [PCM-0215974] | 2.3% | –
Cc1c[nH]c2nc(Nc3ccc(N4CCN(C)CC4)c(F)c3)nc(-c3cccc(CC#N)c3)c12 [PCM-0215633] | 92.4% | –
Cc1ccc(S(=O)(=O)Nc2cc(-c3ccc(C#N)s3)ccc2C)cc1 [PCM-0214896] | -6.2% | –
CCC(=O)NC[C@@H]1C[C@H]1c1cccc2c1CCO2 [PCM-0216634] | 3.9% | –
C[C@H](C(=O)O)c1ccc(-c2ccccc2)c(F)c1 [PCM-0095117] | -2.1% | –
Clc1ccccc1C(c1ccccc1)(c1ccccc1)n1ccnc1 [PCM-0064702] | -2.3% | –
NC1=N[C@@](c2cccc(-c3cncnc3)c2)(c2ccnc(C(F)F)c2)c2cccc(F)c21 [PCM-0215490] | -5.4% | –
O=C(/C=C\n1cnc(-c2cc(C(F)(F)F)cc(C(F)(F)F)c2)n1)NNc1ccccn1 [PCM-0215397] | -19.3% | –
CCCCC(=O)O[C@H]1CC[C@H]2[C@@H]3CCc4cc(O)ccc4[C@H]3CC[C@]12C [PCM-0214721] | 17.9% | –
Cc1nc(Nc2ncc(C(=O)Nc3cc(NC(=O)c4cccc(C(F)(F)F)c4)ccc3C)s2)cc(N2CCN(CCO)CC2)n1 [PCM-0216225] | 47.9% | –
CC(C)(C)c1[nH]cnc1/C=c1\[nH]c(=O)/c(=C/c2ccccc2)[nH]c1=O [PCM-0095681] | -2.1% | –
NCCCCCN [PCM-0216205] | 14.7% | –
CC(=O)O[C@H]1[C@H]2[C@@H](OC(=O)Cc3ccccc3)[C@@H](C)C[C@]2(OC(C)=O)C(=O)/C(C)=C/[C@@H]2[C@H](CC[C@@]13CO3)C2(C)C [PCM-0215129] | – | -14%
Cl[Te]1(Cl)(Cl)OCCO1 [PCM-0215721] | – | 98.6%
CCCNC(=O)c1cn2ncnc(Nc3cc(C(=O)NC4CC4)ccc3C)c2c1C [PCM-0215631] | -13.8% | –
Cc1[nH]c(/C=C2\C(=O)Nc3ccccc32)c(C)c1CCC(=O)O [PCM-0095149] | 52.4% | –
CC(=O)c1ccc(O)c(C(=O)O)c1 [PCM-0215053] | -9.3% | –
Cc1c(Cl)c(OCC(=O)N2CCN(C)CC2)nc2sc(C(=O)NC3CC3)c(N)c12 [PCM-0215380] | -10.8% | –
Nc1ccccc1NC(=O)c1ccc(CNC(=O)OCc2cccnc2)cc1 [PCM-0094980] | 9.7% | –
